Laboratory results taken from US20090162848A1, “Noxin, a novel stress-induced gene involved in cell cycle and apoptosis” (COLD SPRING HARBOR LABORATORY, priority 2007, published 2009).

How the values were obtained:
Type in all cases: cell-based, mouse
[1] = tested on: noxin protein in NIH3T3 cells; assay: Subcellular localization of endogenous noxin by immunofluorescence; conditions: antibody against C-terminal region peptide
[2] = tested on: MEFs from wild type and noxin-/- mice; assay: BrdU/PI flow cytometry of MEFs released from serum arrest, with SNAP
Protocol: Since noxin can induce cell cycle arrest and, in addition, respond to various types of stress stimuli, including NO, the growth characteristics of MEFs isolated from noxin^−/− animals or their wild type (noxin^+/+) littermates were compared. MEFs from wild type and noxin^−/− mice were arrested with low serum (0.1%) culture medium for 24 h and released by adding 10% serum. Cells were either left untreated or exposed to SNAP. At the time of release, BrdU was added to the culture medium and cells were further incubated for 4, 16, or 22 h (FIG. 17, indicated). Cells were collected, stained with PI and analyzed by flow cytometry for BrdU-positive cells (FIG. 17, X-axis: PI, Y-axis: BrdU) and for cell cycle distributions (FIG. 18, X-axis: PI and Y-axis: number of cells) (Fraction P3=G1, Fraction P4=S, Fraction P5=G2/M and Fraction P6=Sub-G1 populations). […]
The growth of noxin^−/− MEFs under normal conditions (FIG. 17g-i) and after addition of SNAP (FIGS. 17j-l) were similar to that of wild type MEFs (FIG. 17a-c and FIG. 17d-f). However, the fraction of sub-G1 cells was higher in noxin-deficient (noxin^−/−) cells (Fraction P6) at each time point analyzed than in wild type (noxin^+/+) MEFs (13.8, 16.3, and 11.5 vs. 9.7, 5.1, and 3.5%, respectively, FIG. 18 fraction P6).

[3] = tested on: noxin protein in NIH3T3 cells; assay: Western blot of endogenous noxin protein after stress stimuli; conditions: anti-noxin Western blot
Protocol: Western blot analysis. Cells or tissues were homogenized in the lysis buffer (10 mM Tris-HCl pH 7.5, 1 mM EDTA, 400 mM NaCl, 0.5% NP40, 5 mM NaF, 0.5 mM sodium orthovanadate, 10% glycerol, 1 mM dithiothreitol, 1 mM PMSF, 1 μg/ml aprotinin, 1 μg/ml leupeptin and 1 μg/ml pepstatin) for 20 min on ice. Following centrifugation, the soluble fraction was collected and protein concentration was determined using the BCA assay kit (Pierce). 50 μg of total protein was separated on an 8% SDS-PAGE gel and transferred to Immobilon-P membrane (Millipore Corporation) by semi-dry blotting. The membranes were incubated with anti-noxin antibody (see above) (1:1,000) followed by anti-mouse IgG or anti-rabbit IgG antibody conjugated to horseradish peroxidase (HRP) (1:10,000, Amersham). The HRP signal was detected using a chemi-luminescence detection kit (SuperSignal Femto Dura Extended Duration Substrate, Pierce) and Hyperfilm X-ray film (Amersham Biosciences).
Furthermore, in the SNAP-, cytokines-, γ-irradiation, and adriamycin-treated cells an additional band of 129 kD was evident.

noxin mRNA = assay: Northern blot time course of noxin mRNA induction
Protocol: Total RNA was extracted from different adult mouse tissues and analyzed for noxin mRNA by Northern hybridization. Northern blot analysis was carried out as follows. Total RNA (10 μg) was separated by denaturing formaldehyde-agarose gel electrophoresis and transferred onto a nylon membrane (Hybond-N^+, Amersham). The membrane was pre-hybridized with hybridization buffer (0.05 M sodium phosphate buffer, 5×SSC, 4×Denhardt's solution, 1% SDS, 50% formamide, 0.1 mg/ml salmon sperm DNA, and 0.2 mg/ml yeast tRNA) for 6 h at 42° C. and hybridized with the same buffer containing 100,000 cpm/ml [α-^32P] dCTP-labeled noxin cDNA probe amplified by PCR from pFLAG-noxin. Following hybridization for 20 h at 42° C., the membrane was washed twice with 2×SSC for 5 min at room temperature, twice with 0.2×SSC for 5 min at 65° C. and twice with 1×SSC with 3% glycerol for 5 min at room temperature. The membrane was exposed for 3 days at −70° C. using X-OMAT X-ray film (Kodak).
Noxin was identified as an NO-inducible gene and the time course of its induction by the NO donor SNAP was determined. Noxin mRNA levels as determined by Northern blot started to increase 2 h after the addition of SNAP and reached maximal levels 8 h after the addition (FIG. 6A). The pattern of noxin induction by SNAP was similar to that of a p53-dependent gene mdm2. Results for β-actin are shown as a control.

Structure (SMILES): CC(=O)NC(C(=O)O)C(C)(C)SN=O (racemic) [SNAP, S-nitroso-N-acetyl-D,L-penicillamine]
- localization of endogenous noxin protein after exposure [1]: predominantly nuclear localization
- decrease of the fraction of dividing cells ([2]; MEFs released from low serum arrest, BrdU): 95.5%
- effect on sub-G1 fraction (Fraction P6) ([2]; noxin+/+ or noxin-/- MEFs): did not noticeably affect
- additional noxin band of 129 kD [3]: evident
- levels of the 125 kD noxin polypeptide [3]: specifically increased
- time after addition at which noxin mRNA levels started to increase (noxin mRNA): 2 h
- time after addition at which noxin mRNA reached maximal levels (noxin mRNA): 8 h
